The subject of this assay is BDF1 mice, P388 leukemia ip, median survival T/C. The assay can be described thus: NCI In Vivo Anticancer Drug Screen. Data for tumor model P388 Leukemia (intraperitoneal) in B6D2F1 (BDF1) mice. Conditions: endpoint: median survival time, higher = longer survival. In short, it runs like this: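 Steps: implant the tumour, treat one group with compound and another with vehicle, record survival, then divide treated by control.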

Setting [1] is: dose: 200.0 mg/kg/injection, schedule: Q01DX009 (ip), vehicle: saline.
Setting [2] is: dose: 100.0 mg/kg/injection, schedule: Q01DX009 (ip), vehicle: saline with Tween-80.
[3] abbreviates: dose: 25.0 mg/kg/injection, schedule: Q01DX009 (ip), vehicle: saline.
The mark [4] stands for this setting: dose: 50.0 mg/kg/injection, schedule: Q01DX009 (ip), vehicle: saline.
Where [5] appears, read: dose: 100.0 mg/kg/injection, schedule: Q04DX003 (ip), vehicle: saline with Tween-80.
[6] abbreviates: dose: 200.0 mg/kg/injection, schedule: Q04DX003 (ip), vehicle: saline with Tween-80.
[7] abbreviates: dose: 400.0 mg/kg/injection, schedule: Q04DX003 (ip), vehicle: saline with Tween-80.

Toxic doses and inconclusive results are not listed.

For the molecule `C/C=C/C(=O)OCC1CC[N+](C)([O-])C1` (stereo not drawn), the T/C (dose: 200.0 mg/kg/injection, schedule: Q01DX001 (ip), vehicle: saline) is 91 % of control; the T/C under setting [1] was 117 % of control; the T/C (dose: 400.0 mg/kg/injection, schedule: Q01DX001 (ip), vehicle: saline) is 91 % of control; the T/C (dose: 800.0 mg/kg/injection, schedule: Q01DX001 (ip), vehicle: saline) is 100 % of control; the T/C (dose: 800.0 mg/kg/injection, schedule: Q01DX009 (ip), vehicle: saline) is 99 % of control; the T/C (dose: 1600.0 mg/kg/injection, schedule: Q01DX001 (ip), vehicle: saline) was 95 % of control.
For the molecule `O=C1N[C@@H]([C@H]2CC[C@H](Cl)CN2)C(=O)N[C@H]1[C@H]1CC[C@H](Cl)CN1`, the T/C was 154 % of control (dose: 0.1 mg/kg/injection, schedule: Q01DX010 (ip), vehicle: saline); 181 % of control (dose: 0.2 mg/kg/injection, schedule: Q01DX010 (ip), vehicle: saline); 227 % of control (dose: 0.4 mg/kg/injection, schedule: Q01DX010 (ip), vehicle: saline); 170 % of control (dose: 1.44 mg/kg/injection, schedule: Q04DX003 (ip), vehicle: saline); 179 % of control (dose: 1.44 mg/kg/injection, schedule: Q04DX003 (ip), vehicle: water); 184 % of control (dose: 2.4 mg/kg/injection, schedule: Q04DX003 (ip), vehicle: saline). For the same molecule, the T/C by setting is: (dose: 2.4 mg/kg/injection, schedule: Q04DX003 (ip), vehicle: water) 192 % of control; (dose: 2.5 mg/kg/injection, schedule: Q01DX001 (ip), vehicle: saline) 177 % of control; (dose: 4.0 mg/kg/injection, schedule: Q04DX003 (ip), vehicle: saline) 252 % of control; (dose: 4.0 mg/kg/injection, schedule: Q04DX003 (ip), vehicle: water) 259 % of control; (dose: 5.0 mg/kg/injection, schedule: Q01DX001 (ip), vehicle: saline) 209 % of control; (dose: 6.67 mg/kg/injection, schedule: Q04DX003 (ip), vehicle: saline) 118 % of control. Also, where the note is “dose: 6.67 mg/kg/injection, schedule: Q04DX003 (ip), vehicle: water”, the T/C is 118 % of control.
For the molecule `Cc1c[se]c(=S)s1`, the T/C runs as follows: (dose: 25.0 mg/kg/injection, schedule: Q01DX009 (ip), vehicle: saline with Tween-80) 101 % of control; (dose: 50.0 mg/kg/injection, schedule: Q01DX009 (ip), vehicle: saline with Tween-80) 96 % of control; under setting [2], 98 % of control.
In the case of `CCCC(N)C(=O)c1ccccc1` (stereo not drawn), the T/C by setting is: under setting [3], 109 % of control; under setting [4], 109 % of control.
`CCC(=O)OC(C)COc1ccc(C(C)(C)C)cc1` (stereo not drawn): the T/C under setting [2] is 110 % of control; the T/C (dose: 200.0 mg/kg/injection, schedule: Q01DX009 (ip), vehicle: saline with Tween-80) is 110 % of control; the T/C (dose: 400.0 mg/kg/injection, schedule: Q01DX009 (ip), vehicle: saline with Tween-80) is 124 % of control.
With `CC1(C)N=C(N)N=C(N)N1NC(=O)c1cccc(Cl)c1`, the T/C (dose: 50.0 mg/kg/injection, schedule: Q04DX003 (ip), vehicle: saline sonified) was 109 % of control; the T/C (dose: 100.0 mg/kg/injection, schedule: Q04DX003 (ip), vehicle: saline sonified) was 109 % of control; the T/C (dose: 200.0 mg/kg/injection, schedule: Q04DX003 (ip), vehicle: saline sonified) is 109 % of control.
For the molecule `CN=c1ccc2nc3ccc(N)cc3sc-2c1`, the T/C (dose: 50.0 mg/kg/injection, schedule: Q01DX005 (ip), vehicle: saline with Tween-80) was 103 % of control.
In the case of `CCOC(=O)C(NC(C)=O)(C(=O)OCC)C(C)C(=O)c1ccc(OC)c(OC)c1OCc1ccccc1` (stereo not drawn), the T/C is, setting by setting: (dose: 12.5 mg/kg/injection, schedule: Q01DX009 (ip), vehicle: saline) 101 % of control; under setting [3], 111 % of control; under setting [4], 92 % of control; under setting [1], 101 % of control.
As to `CC(C)CC(Br)C(=O)NC(CC(C)C)C(=O)O` (stereo not drawn), the T/C under setting [5] was 104 % of control, the T/C under setting [6] is 100 % of control and the T/C under setting [7] was 109 % of control.
`O=NN(CCCl)C(=O)NC12CC3CC(CC(C3)C1)C2`: the T/C reads like this: (dose: 5.0 mg/kg/injection, schedule: Q04DX003 (ip), vehicle: Klucel (hydroxypropylcellulose) (HPC)) 100 % of control; (dose: 15.0 mg/kg/injection, schedule: Q04DX003 (ip), vehicle: Klucel (hydroxypropylcellulose) (HPC)) 95 % of control; (dose: 30.0 mg/kg/injection, schedule: Q04DX003 (ip), vehicle: Klucel (hydroxypropylcellulose) (HPC)) 104 % of control; (dose: 37.5 mg/kg/injection, schedule: Q04DX003 (ip), vehicle: Klucel (hydroxypropylcellulose) (HPC)) 166 % of control; (dose: 75.0 mg/kg/injection, schedule: Q04DX003 (ip), vehicle: Klucel (hydroxypropylcellulose) (HPC)) 250 % of control; under setting [5], 285 % of control. For the same molecule, the T/C (dose: 150.0 mg/kg/injection, schedule: Q04DX003 (ip), vehicle: Klucel (hydroxypropylcellulose) (HPC)) is 250 % of control; the T/C (dose: 175.0 mg/kg/injection, schedule: Q04DX003 (ip), vehicle: saline) is 103 % of control; the T/C under setting [6] is 285 % of control; the T/C under setting [7] was 285 % of control.

Source of the values: PubChem BioAssay AID328 (DTP/NCI, 2004).
